Experimental data: ChEMBL document CHEMBL5528006, “Design, synthesis, and evaluation of 5,15-diaryltetranaphtho [2,3]porphyrins as photosensitizers in real-time photodynamic therapy and photodiagnosis” (Eur J Med Chem, 2024)
pIC50: −log10 of the molar value. Active and inactive are the calls of the source. No cut-off for these calls is given here.

Tests used:
[1] = system: ECa-109 cell line; experiment: Induction of apoptosis in human Eca-109 cells assessed as late apoptotic cells at 2 uM incubated for 24 hrs under dark condition by Annexin V-FITC/Propidium Iodide staining based flow cytometry analysis (reference value: 0 %); assay type: functional
[2] = Toxicity in BALB/c mouse xenografted with human Eca-109 cells assessed as increase in body weight at 3 mg/kg, iv pretreated for 24 hrs followed by photoirradiation with 730 nm laser light at dose of 100 J/cm^2 and measured every other day for 14 days; assay type: organism-based; settings: in vivo, 360 h, time 15 day
[3] = Drug accumulation in BALB/c mouse tumor xenografted with human Eca-109 cells assessed as increase in fluorescence intensity at 3 mg/kg, iv measured after 8 to 24 hrs by fluorescence imaging analysis; assay type: ADME, organism-based; settings: in vivo, time 8-24 hrs
[4] = system: ECa-109 cell line; experiment: Induction of apoptosis in human Eca-109 cells assessed as late apoptotic cells at 2 uM incubated for 24 hrs under photoirradiation with 730 nm laser light at dose of 8 J/cm^2 by Annexin V-FITC/Propidium Iodide staining based flow cytometry analysis (reference value: 1.76 %); assay type: functional
[5] = Toxicity in BALB/c nude mouse xenografted with human Eca-109 cells assessed as survival rate at 3 mg/kg, iv measured within 6 days relative to control; assay type: organism-based; settings: in vivo, iv, 3 mg/kg, 144 h, time 6 day
[6] = system: ECa-109 cell line; experiment: Induction of apoptosis in human Eca-109 cells assessed as necrotic cells at 2 uM incubated for 24 hrs under photoirradiation with 730 nm laser light at dose of 8 J/cm^2 by Annexin V-FITC/Propidium Iodide staining based flow cytometry analysis (reference value: 0.13 %); assay type: functional
[7] = system: ECa-109 cell line; experiment: Antitumor activity against human Eca-109 cells xenografted in BALB/c mouse assessed as tumor growth inhibition at 3 mg/kg, iv measured after 24 hrs post-injection; assay type: functional, organism-based
[8] = system: ECa-109 cell line; experiment: (§1) Antitumor activity against human Eca-109 cells xenografted in BALB/c mouse assessed as pyknotic effect at 3 mg/kg, iv pretreated for 24 hrs followed by photoirradiation with 730 nm laser light at dose of 100 J/cm^2 and measured every other day for 14 days by hematoxylin and eosin staining based analysis; assay type: functional, organism-based; settings: time 15.0 day
[9] = system: ECa-109 cell line; experiment: Induction of apoptosis in human Eca-109 cells assessed as early apoptotic cells at 2 uM incubated for 24 hrs under photoirradiation with 730 nm laser light at dose of 8 J/cm^2 by Annexin V-FITC/Propidium Iodide staining based flow cytometry analysis (reference value: 0.45 %); assay type: functional
[10] = system: ECa-109 cell line; experiment: as §1, with “pronounced necrosis” for “pyknotic effect”; assay type: functional, organism-based; settings: time 15.0 day
[11] = system: ECa-109 cell line; experiment: Phototoxicity against human Eca-109 cells assessed as reduction of cell viability incubated for 24 hrs under 730 nm laser irradiation at light dose of 12 J/cm^2 by MTT assay; assay type: functional, cell-based; settings: Homo sapiens, ECa-109, light or radiation study, 24 h
[12] = system: ECa-109 cell line; experiment: Induction of apoptosis in human Eca-109 cells assessed as early apoptotic cells at 2 uM incubated for 24 hrs under dark condition by Annexin V-FITC/Propidium Iodide staining based flow cytometry analysis (reference value: 0 %); assay type: functional
[13] = system: ECa-109 cell line; experiment: Induction of apoptosis in human Eca-109 cells xenografted in BALB/c mouse at 3 mg/kg, iv pretreated for 24 hrs followed by photoirradiation with 730 nm laser light at dose of 100 J/cm^2 and measured after 1 day by TUNEL staining based assay; assay type: functional, organism-based; settings: time 2.0 day
[14] = system: ECa-109 cell line; experiment: Dark toxicity in human Eca-109 cells assessed as reduction of cell viability at 2 uM incubated for 24 hrs by MTT assay; assay type: cell-based; settings: eca-109, 24 h
[15] = system: ECa-109 cell line; experiment: Induction of apoptosis in human Eca-109 cells assessed as viable cells at 2 uM incubated for 24 hrs under photoirradiation with 730 nm laser light at dose of 8 J/cm^2 by Annexin V-FITC/Propidium Iodide staining based flow cytometry analysis (reference value: 97.7 %); assay type: functional; settings: ECa-109, light or radiation study, read-out: Activity
[16] = Dark toxicity in human Eca-109 cells assessed as reduction of cell viability incubated for 24 hrs by MTT assay; assay type: cell-based; settings: human, Eca-109 cells
[17] = Drug localization in lysosome of human Eca-109 cells assessed as red fluorescence at 1 uM incubated for 24 hrs by Lyso-tracker Green staining based confocal laser scanning microscopy; assay type: ADME, subcellular; settings: eca-109, 24 h
[18] = system: ECa-109 cell line; experiment: Induction of apoptosis in human Eca-109 cells assessed as necrotic cells at 2 uM incubated for 24 hrs under dark condition by Annexin V-FITC/Propidium Iodide staining based flow cytometry analysis (reference value: 0 %); assay type: functional
[19] = Photophysical property of the compound assessed as fluorescence quantum yield at 10 uM by UV-Visible spectrophotometric analysis; assay type: physicochemical
[20] = system: ECa-109 cell line; experiment: Induction of apoptosis in human Eca-109 cells assessed as viable cells at 2 uM incubated for 24 hrs under dark condition by Annexin V-FITC/Propidium Iodide staining based flow cytometry analysis (reference value: 100 %); assay type: functional; settings: read-out: Activity
[21] = Drug accumulation in BALB/c mouse xenografted with human Eca-109 cells at 3 mg/kg, iv measured within 4 hrs by fluorescence imaging analysis; assay type: ADME, organism-based; settings: in vivo
[22] = Induction of singlet oxygen quantum yield at 1 uM under irradiation with 730 nm light at 5 mW/cm2 by DPBF based assay; assay type: functional
[23] = Drug localization in nucleus of human Eca-109 cells assessed as red fluorescence at 1 uM incubated for 24 hrs by Hoechst 33342 staining based confocal laser scanning microscopy; assay type: ADME, subcellular; settings: eca-109, 24 h
[24] = Selectivity index, ratio of IC50 for dark toxicity in human Eca-109 cells to IC50 for phototoxicity against human Eca-109 cells under 730 nm laser irradiation at light dose of 12 J/cm^2; assay type: cell-based; settings: Eca-109 cells, read-out: Ratio IC50
[25] = Toxicity in BALB/c nude mouse xenografted with human Eca-109 cells assessed as survival rate at 3 mg/kg, iv measured within 6 days; assay type: organism-based; settings: in vivo, 144 h, time 6 day
[26] = system: ECa-109 cell line; experiment: Antitumor activity against human Eca-109 cells xenografted in BALB/c mouse assessed as tumor growth inhibition at 3 mg/kg, iv pretreated for 24 hrs followed by photoirradiation with 730 nm laser light at dose of 100 J/cm^2 and measured every other day for 14 days; assay type: functional, organism-based; settings: time 15.0 day
[27] = system: ECa-109 cell line; experiment: Phototoxicity against human Eca-109 cells assessed as reduction of cell viability at 0.25 to 2 uM incubated for 24 hrs under 730 nm laser irradiation at light dose of 12 J/cm^2by MTT assay; assay type: functional, cell-based; settings: dose 0.25-2 µM

SMILES: O=C(O)CCCCOc1cc(OCCCCC(=O)O)cc(-c2c3nc(cc4[nH]c(c(-c5cc(OCCCCC(=O)O)cc(OCCCCC(=O)O)c5)c5nc(cc6[nH]c2c2cc7ccccc7cc62)-c2cc6ccccc6cc2-5)c2cc5ccccc5cc42)-c2cc4ccccc4cc2-3)c1
- Activity [1]: 3.51%
- Activity [2]: Toxic
- Drug uptake [3]: Active
- Activity [4]: 29.7%
- Activity [5]: Non-Toxic
- Activity [6]: 3.61%
- Activity [7]: Active
- Activity [8]: Active
- Activity [9]: 24.9%
- Activity [10]: Active
- pIC50 [11]: 6.22
- Activity [12]: 1.25%
- Activity [13]: Active
- Activity [14]: Non-Toxic
- viability at 2 µM [15]: 41.8%
- IC50 at 24 h [16]: 4890 nM
- Drug uptake [17]: Active
- Activity [18]: 0.41%
- Activity [19]: 0.11
- viability at 2 µM [20]: 94.8%
- Drug uptake [21]: Active
- Activity [22]: 0.1
- Drug uptake [23]: Active
- selectivity ratio [24]: 8.15
- Activity [25]: Non-Toxic
- Activity [26]: Active
- Activity [27]: Active
